# Data taken from patent US7749546B2, “Composition for effectively suppressing the growth of prostate cancer cell, suppressing the prostatic hyperplasia and its preparation method” (Golden Biotechnology Corp., priority 2004, dated 2010).
# System: human prostate cancer cell lines—LNCaP cells
# Experiment: In vitro mode adjunctive treatment activity assay with Taxol (MTT cell survival)
# Assay type: cell-based
# Conditions: 2 nM Taxol alone
# Method: Utilize in vitro filter mode for human prostate cancer cell lines—LNCaP cells. Where human prostate cancer cell lines—LNCaP cells is being cultured in the culture medium which is supplemented by fetalbovine serum for 24 hours, and process cells by Taxol for 72 hours, and then change the culture medium so as to culture it in a new culture medium by adding assay sample for 72 hours, afterwards evaluate the cell survival rate by MIT colorimetric analysis method.
# ※ The assay analysis of the compositions in accordance with the present invention in effect for suppressing the growth of human prostate cancer cells, wherein it is necessary to compute the cell survival rate for cells in each well of 96-well microplate, afterwards evaluate the cancer cells survival rate by MIT colorimetric analysis method.
# ※ MTT colorimetric analysis method: MTT is a kind of tertrazolium salt, with a full name of 3-[4,5-Dimenthylthialzol-2-yl]2, 5-diphenyltetrazoliumbromide, which is the yellow dye, capable to be absorbed by live cells and also be reduced to blue color formazan by succinate-tetrazoliumreductase in mitochondrion, which is commonly used for filtering the affection for matters to the growth and proliferation of cells.
smiles,measurement,value
CC(=O)O[C@H]1C(=O)[C@@]2(C)[C@H]([C@H](OC(=O)c3ccccc3)[C@]3(O)C[C@H](OC(=O)[C@H](O)[C@@H](NC(=O)c4ccccc4)c4ccccc4)C(C)=C1C3(C)C)[C@]1(OC(C)=O)CO[C@@H]1C[C@@H]2O [Taxol],cell survival rate for human prostate cancer cells,56.4%
